Here are results for ten molecules from ChEMBL document CHEMBL1201862, “PubChem BioAssay data set” (2004).

What all share (experiment): NCI anticancer screen, dose series, 48 h
Assay [1] deals with IGROV-1.
Assay [2] relates to OVCAR-5.
In assay [3] the test system is NCI-H23.
The test system of assay [4] is KM-20L2.
Assay [5] concerns A549.
Assay [6] relates to UACC-62.
The subject of assay [7] is U-251.
In assay [8] the test system is Malme-3M.
In assay [9] the test system is SW-620.
Assay [10] relates to OVCAR-4.
Assay [11] has as its system 786-0.
Assay [12] relates to NCI-H460.
Assay [13] has as its system LOX IMVI.
The subject of assay [14] is SNB-75.
In assay [15] the test system is HOP-62.
Assay [16] deals with NCI-H522.
Assay [17] has as its system SN12C.
In assay [18] the test system is HT-29.
Assay [19] has as its system SK-OV-3.
The test system of assay [20] is MDA-N.

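Briefly, cells in 96-well plates were exposed to five compound concentrations for 48 h, and endpoints were estimated by linear interpolation. GI50 is the concentration that inhibits growth by half.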 The source made the active and inactive calls. No stated cut-off is given here; in the data, active = GI50 up to about 1.1 µM and inactive = higher. A value given as a limit tells only on which side of the number the result lay.

With `COc1ccccc1NC(=O)CSC(N)=O`, the GI50 in assay [1] is 66.5 µM (inactive); in assay [2], > 100 µM (inactive); in assay [3], 69.3 µM (inactive); in [4], > 100 µM (inactive); in assay [5], 72.6 µM (inactive); in [6] it was 25.8 µM (inactive). The GI50 in assay [7] is 25.6 µM (inactive); in [8] it was 43 µM (inactive); in [9] it was 32.2 µM (inactive); in assay [10], > 100 µM (inactive); in assay [11], 19.1 µM (inactive); in assay [12], 32.7 µM (inactive). Further, the GI50 is 36.4 µM (inactive) in [13]; 30 µM (inactive) in [14]; 24.7 µM (inactive) in assay [15]; 33.4 µM (inactive) in assay [16]; 62.2 µM (inactive) in assay [17]; 47.2 µM (inactive) in assay [18]. For the same molecule, the GI50 in assay [19] was > 100 µM (inactive).

With `NS(=O)(=O)c1ccc(NC(=O)c2cccc3cc4ccccc4nc23)cc1`, the GI50 was > 78.2 µM (inactive) in [1]; > 96.2 µM (inactive) in [2]; 20.5 µM (inactive) in assay [3]; 12.6 µM (inactive) in assay [4]; 10 µM (inactive) in assay [5]; 66.5 µM (inactive) in assay [6]. The GI50 in assay [7] was 23.4 µM (inactive); in assay [8] it was 12.2 µM (inactive); in assay [9], 6.04 µM (inactive); in assay [10], 21 µM (inactive); in assay [11], 12.8 µM (inactive); in assay [12], 5.02 µM (inactive). The GI50 in assay [20] was 13 µM (inactive); in assay [13] it was 6.14 µM (inactive); in assay [14] it was > 37.4 µM (inactive); in [15], > 58.6 µM (inactive); in assay [16], 17.1 µM (inactive); in [17], 20.8 µM (inactive). Further, the GI50 was 8.3 µM (inactive) in assay [18] and > 88.7 µM (inactive) in assay [19].

Take `N#CN1CCC=C(c2cc3ccccc3[nH]2)C1`: the GI50 in assay [1] is 277 µM (inactive); in [2], > 448 µM (inactive); in assay [3] it was 182 µM (inactive); in [4], > 448 µM (inactive); in assay [5], 394 µM (inactive); in assay [6], 201 µM (inactive). Also, the GI50 in assay [7] was 434 µM (inactive); in assay [8], 442 µM (inactive); in assay [9] it was 414 µM (inactive); in [11] it was > 448 µM (inactive); in assay [12], > 448 µM (inactive); in assay [13], 230 µM (inactive). For the same molecule, the GI50 in [15] was > 448 µM (inactive); in assay [16] it was 109 µM (inactive); in assay [17] it was 356 µM (inactive); in assay [18], > 448 µM (inactive); in [19], > 448 µM (inactive).

Take `CCCc1nc(NC#N)nc(C(=O)NC23CC4CC(CC(C4)C2)C3)c1C`: the GI50 in assay [1], in assay [2], in assay [3], in assay [4], in [5] and in assay [6] was > 100 µM (inactive) throughout. The GI50 in [7], in assay [8], in assay [9], in assay [10], in assay [11] and in assay [12] was > 100 µM (inactive) each time. In addition, the GI50 in [13], in assay [14], in assay [15], in assay [16], in assay [17] and in assay [18] was > 100 µM (inactive) each time. Besides, the GI50 in assay [19] is > 100 µM (inactive).

As to `NC(=S)N/N=C(\CC1OC(=O)c2ccccc21)c1ccc(Cl)cc1` (stereo unspecified), the GI50 in assay [1] is 40.3 µM (inactive); in [2] it was 92.9 µM (inactive); in [3] it was 25.2 µM (inactive); in assay [4], 47 µM (inactive); in assay [5], 48.2 µM (inactive); in assay [6], 19.6 µM (inactive). Besides, the GI50 was 22.5 µM (inactive) in assay [7]; 30.6 µM (inactive) in assay [8]; 44.8 µM (inactive) in assay [9]; 23.1 µM (inactive) in assay [10]; 43.4 µM (inactive) in assay [11]; 34.3 µM (inactive) in assay [12]. Besides, the GI50 in assay [13] was 27.8 µM (inactive); in assay [14], 49.2 µM (inactive); in [15], 23.2 µM (inactive); in [16], 20.9 µM (inactive); in assay [17], 35.2 µM (inactive); in assay [18] it was 27.2 µM (inactive). Moreover, the GI50 in [19] was 42.8 µM (inactive).

`NC1(C(=O)O)CCC(C(=O)O)CC1` (stereo unspecified): the GI50 in assay [1], in assay [2], in assay [3], in assay [4], in assay [5] and in assay [6] was > 100 µM (inactive) in each case. For the same molecule, the GI50 in assay [7], in [8], in assay [9], in assay [10], in assay [11] and in assay [12] was > 100 µM (inactive) each time. Further, the GI50 in [13], in [14], in assay [15], in [16], in assay [17] and in assay [18] was > 100 µM (inactive) in each case. Moreover, in [19], the GI50 was > 100 µM (inactive).

With `Cc1cccc(C)c1NC(=O)CCCC(=O)CC(=O)/C=C/c1ccccc1`, the GI50 in assay [1], in [2], in assay [3], in assay [4], in assay [5] and in assay [6] was > 100 µM (inactive) each time. Further, the GI50 in [7], in [8], in assay [9], in assay [10], in [11] and in assay [12] was > 100 µM (inactive) each time. Besides, the GI50 in assay [13], in assay [14], in assay [16], in assay [17], in [18] and in assay [19] was > 100 µM (inactive) in each case.

Take `Cc1ccc2nc(/C(=C/c3ccc(/C=C(\NC(=O)c4ccccc4)c4nc5ccc(C)cc5[nH]4)c(C)c3)NC(=O)c3ccccc3)[nH]c2c1`: the GI50 in assay [1] is 1.81 µM (inactive); in assay [2], 19.6 µM (inactive); in [3], 19.7 µM (inactive); in assay [4] it was 20.3 µM (inactive); in assay [5] it was 6.14 µM (inactive); in assay [6], 1.14 µM (inactive). In addition, the GI50 in assay [7] is 22.7 µM (inactive); in assay [8] it was 7.29 µM (inactive); in [9], 5.92 µM (inactive); in assay [11], 9.02 µM (inactive); in assay [12] it was 13.2 µM (inactive); in assay [14] it was 7.08 µM (inactive). Also, the GI50 in [15] is 46.6 µM (inactive); in assay [16], 22.2 µM (inactive); in assay [17], 5.5 µM (inactive); in assay [18], 28.1 µM (inactive); in [19], 13.7 µM (inactive).

`CCN(CC)c1ccc(/N=N\c2ccc(-c3nc4ccc[n+](C)c4s3)cc2)cc1`: the GI50 in assay [1] is 8.18 µM (inactive); in [2], 17.1 µM (inactive); in [3] it was 5.5 µM (inactive); in [4], 6.78 µM (inactive); in [5], 4.2 µM (inactive); in assay [6], 7.59 µM (inactive). Also, the GI50 was 4.07 µM (inactive) in [7]; 6.11 µM (inactive) in assay [8]; 4.75 µM (inactive) in assay [9]; 6.5 µM (inactive) in assay [10]; 17.1 µM (inactive) in assay [11]; 4.01 µM (inactive) in assay [12]. The GI50 in assay [13] was 0.423 µM (active); in assay [14] it was 9.4 µM (inactive); in assay [15], 17.3 µM (inactive); in assay [16], 3.06 µM (inactive); in assay [17], 4.29 µM (inactive); in assay [18], 5.25 µM (inactive). For the same molecule, the GI50 in assay [19] is 16.1 µM (inactive).

`CC#N.O[C@@H]1CCCC[C@H]1O.O[C@@H]1CCCC[C@H]1O.[TeH2]`: the GI50 in assay [1] was 41.6 µM (inactive); in [2], 23.8 µM (inactive); in assay [3] it was 20.8 µM (inactive); in assay [4], 69.7 µM (inactive); in assay [5], 41.5 µM (inactive); in assay [6] it was 82.2 µM (inactive). Further, the GI50 was 13.9 µM (inactive) in assay [7]; > 100 µM (inactive) in assay [8]; 16.7 µM (inactive) in assay [9]; 61.8 µM (inactive) in assay [10]; 48.8 µM (inactive) in assay [11]; 2.99 µM (inactive) in [12]. Besides, the GI50 in assay [13] was 9.57 µM (inactive); in [14], > 100 µM (inactive); in assay [15], 53.5 µM (inactive); in [16] it was 37.2 µM (inactive); in assay [17] it was 29.1 µM (inactive); in [18], 28.2 µM (inactive). For the same molecule, the GI50 in [19] is > 100 µM (inactive).
